Test: Choice of the pH value (HPLC peak area of Forsythiaside)
Assay type: physicochemical
Conditions: for Peak Area: HPLC peak area of Forsythiaside in water
Description: Taking appropriate amount of Forsythiaside, adding water to it for dissolution. Adjusting the pH value to 3.0, 3.5, 4.0, 4.5, 5.0, 5.5, 6.0 separately, then determining the peak area value of Forsythiaside at different pH value by HPLC to investigate the influence on the content of Forsythiaside caused by different pH value.

Substance: Forsythiaside
- Peak Area (pH Value 3.0): 1410.0
- Peak Area (pH Value 3.5): 1499.0
- Peak Area (pH Value 4.0): 1519.8
- Peak Area (pH Value 4.5): 1523.1
- Peak Area (pH Value 5.0): 1494.5
- Peak Area (pH Value 5.5): 1480.6
- Peak Area (pH Value 6.0): 1423.5
- content of Forsythiaside at different pH value (pH value 3.0-6.0): not sufficiently varied
- content of Forsythiaside at different pH value (pH value 4.5): highest content
